Assay results as given in US11214565B2, “Compound, compositions, and methods” (Denali Therapeutics Inc., priority 2015, dated 2022).

Each molecule was assayed against LRRK2 G2019S enzyme (Homo sapiens (Human), UniProt Q5S007, G2019S) (assay: LRRK2 G2019S TR-FRET biochemical kinase assay (LRRKtide substrate)). Details: Table A-2; 5 nM LRRK2, 134 μM ATP, 60 minute reaction, 23° C.
In short: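 TR-FRET phospho-LRRKtide readout (2 nM antibody, 10 mM EDTA, 60 min) after a 60 min, 23 °C kinase reaction. The reaction used 134 μM ATP and 5 nM enzyme in pH 7.5 Tris/MgCl2/EGTA/DTT buffer, with compound and enzyme-substrate mix preincubated for 20 min beforehand.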

LRRK2 G2019S enzyme, sequence (Q5S007 whole entry G2019S): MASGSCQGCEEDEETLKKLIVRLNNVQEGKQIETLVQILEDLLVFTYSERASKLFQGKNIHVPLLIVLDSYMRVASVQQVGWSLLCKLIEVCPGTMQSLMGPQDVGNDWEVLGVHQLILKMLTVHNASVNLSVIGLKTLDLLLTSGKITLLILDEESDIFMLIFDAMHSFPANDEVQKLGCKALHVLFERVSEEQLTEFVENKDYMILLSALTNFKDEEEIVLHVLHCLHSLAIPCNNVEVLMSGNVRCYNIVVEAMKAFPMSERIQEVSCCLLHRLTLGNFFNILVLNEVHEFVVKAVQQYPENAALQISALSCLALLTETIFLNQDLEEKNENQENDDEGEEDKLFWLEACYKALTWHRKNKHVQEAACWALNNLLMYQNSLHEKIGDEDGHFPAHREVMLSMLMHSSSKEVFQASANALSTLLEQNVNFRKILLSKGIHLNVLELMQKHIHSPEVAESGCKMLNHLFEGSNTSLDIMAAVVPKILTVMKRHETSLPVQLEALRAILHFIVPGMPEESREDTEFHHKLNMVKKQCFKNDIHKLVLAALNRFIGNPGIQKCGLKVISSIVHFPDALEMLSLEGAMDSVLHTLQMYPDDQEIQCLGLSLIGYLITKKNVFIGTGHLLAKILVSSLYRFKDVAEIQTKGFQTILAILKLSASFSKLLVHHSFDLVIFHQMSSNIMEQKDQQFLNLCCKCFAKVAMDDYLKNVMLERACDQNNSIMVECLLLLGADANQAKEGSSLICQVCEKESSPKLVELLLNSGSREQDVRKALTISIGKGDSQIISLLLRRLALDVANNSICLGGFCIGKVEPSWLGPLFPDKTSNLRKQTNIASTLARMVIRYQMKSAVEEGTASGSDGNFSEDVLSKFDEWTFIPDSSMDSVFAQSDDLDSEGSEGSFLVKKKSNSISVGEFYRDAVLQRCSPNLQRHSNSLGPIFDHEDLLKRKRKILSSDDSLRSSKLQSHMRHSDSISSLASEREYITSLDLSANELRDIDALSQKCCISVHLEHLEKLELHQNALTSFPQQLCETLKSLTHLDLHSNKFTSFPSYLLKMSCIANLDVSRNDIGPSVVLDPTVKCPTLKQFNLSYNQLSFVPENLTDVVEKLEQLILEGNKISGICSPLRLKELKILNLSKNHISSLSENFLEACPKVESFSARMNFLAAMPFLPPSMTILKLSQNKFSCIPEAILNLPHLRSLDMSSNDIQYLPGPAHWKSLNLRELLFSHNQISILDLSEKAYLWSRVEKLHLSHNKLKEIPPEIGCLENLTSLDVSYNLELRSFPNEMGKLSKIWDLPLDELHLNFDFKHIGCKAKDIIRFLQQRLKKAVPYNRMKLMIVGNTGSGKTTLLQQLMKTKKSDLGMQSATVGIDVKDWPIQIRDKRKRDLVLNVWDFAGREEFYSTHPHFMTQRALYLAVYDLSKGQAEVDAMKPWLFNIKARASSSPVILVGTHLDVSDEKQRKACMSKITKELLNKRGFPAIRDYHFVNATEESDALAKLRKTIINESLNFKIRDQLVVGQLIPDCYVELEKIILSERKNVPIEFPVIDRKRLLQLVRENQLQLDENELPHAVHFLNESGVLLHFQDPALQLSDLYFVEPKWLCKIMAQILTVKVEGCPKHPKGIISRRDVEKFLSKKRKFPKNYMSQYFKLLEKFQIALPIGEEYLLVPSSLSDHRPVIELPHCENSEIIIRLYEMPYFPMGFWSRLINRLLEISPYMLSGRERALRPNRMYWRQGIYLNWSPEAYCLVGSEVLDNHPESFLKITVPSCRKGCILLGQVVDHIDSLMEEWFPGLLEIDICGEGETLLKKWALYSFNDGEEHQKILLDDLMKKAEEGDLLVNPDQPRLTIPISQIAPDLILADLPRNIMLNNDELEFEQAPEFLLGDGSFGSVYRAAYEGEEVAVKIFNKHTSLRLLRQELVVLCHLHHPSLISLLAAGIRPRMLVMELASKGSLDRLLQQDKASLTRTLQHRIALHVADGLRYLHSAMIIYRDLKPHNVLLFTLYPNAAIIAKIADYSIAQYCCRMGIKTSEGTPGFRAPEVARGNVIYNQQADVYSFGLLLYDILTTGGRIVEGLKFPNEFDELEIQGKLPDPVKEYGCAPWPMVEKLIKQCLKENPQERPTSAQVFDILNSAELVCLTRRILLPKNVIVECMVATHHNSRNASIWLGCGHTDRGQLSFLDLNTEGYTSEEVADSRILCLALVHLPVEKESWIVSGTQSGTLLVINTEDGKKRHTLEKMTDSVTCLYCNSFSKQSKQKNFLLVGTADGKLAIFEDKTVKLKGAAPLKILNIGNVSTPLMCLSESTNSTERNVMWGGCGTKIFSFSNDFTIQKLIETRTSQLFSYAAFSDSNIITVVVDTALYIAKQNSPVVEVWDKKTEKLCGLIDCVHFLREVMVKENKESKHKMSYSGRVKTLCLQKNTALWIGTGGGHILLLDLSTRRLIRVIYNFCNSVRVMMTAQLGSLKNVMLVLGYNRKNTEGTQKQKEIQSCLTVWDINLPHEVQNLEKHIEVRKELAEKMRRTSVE

Cc1c(Nc2ncc(C(F)(F)F)c(C3CC3)n2)cnn1[C@@H]1CCc2cn[nH]c21 [Compounds A-84] and Cc1c(Nc2ncc(C(F)(F)F)c(C3CC3)n2)cnn1[C@H]1CCc2cn[nH]c21 [Compounds A-92] cannot be ordered by IC50: less than 30 nM for the first, less than 30 nM for the second.

Cc1nn([C@@H]2CCNC2=O)cc1Nc1ncc(C(F)(F)F)c(C2CC2)n1 [Compounds A-85] and Cc1nn([C@H]2CCNC2=O)cc1Nc1ncc(C(F)(F)F)c(C2CC2)n1 [Compounds A-86] cannot be ordered by IC50: less than 30 nM for the first, less than 30 nM for the second.

Cc1nn([C@@H]2CCc3cn[nH]c32)cc1Nc1ncc(C(F)(F)F)c(C2CC2)n1 [Compounds A-89] and Cc1nn([C@H]2CCc3cn[nH]c32)cc1Nc1ncc(C(F)(F)F)c(C2CC2)n1 [Compounds A-90] cannot be ordered by IC50: less than 30 nM for the first, less than 30 nM for the second.

Compared with Cc1c(Nc2ncc(C(F)(F)F)c(C3CC3)n2)cnn1[C@H]1CCNC1=O [Compounds A-91], Cc1nn([C@@]2(C)CCNC2=O)cc1Nc1ncc(C(F)(F)F)c(C2CC2)n1 [Compounds A-94] is lower in IC50: 30 to 60 nM for the first, less than 30 nM for the second.

Cc1nn([C@]2(C)CCNC2=O)cc1Nc1ncc(C(F)(F)F)c(C2CC2)n1 [Compounds A-95] and Cc1nn([C@@](C)(C(N)=O)C(F)F)cc1Nc1ncc(C(F)(F)F)c(C2CC2)n1 [Compounds A-96] cannot be ordered by IC50: less than 30 nM for the first, less than 30 nM for the second.

In the case of Cc1nn([C@](C)(C(N)=O)C(F)F)cc1Nc1ncc(C(F)(F)F)c(C2CC2)n1 [Compounds A-97], the IC50 is reported as 30 to 60 nM.

Same assay, conditions: Table D-4; 5 nM LRRK2, 134 μM ATP, 60 minute reaction, 23° C.

Cc1c(Nc2ncc(C(F)(F)F)c(NC3CC3)n2)cnn1[C@H]1C[C@H](n2cccn2)C1 [Compound D-106] and Cc1c(Nc2ncc(C(F)(F)F)c(NC3CC3)n2)cnn1[C@H]1C[C@H](n2nccn2)C1 [Compound D-119] cannot be ordered by IC50: less than 30 nM for the first, less than 30 nM for the second.

CNc1nc(Nc2cnn([C@H]3C[C@H](n4cnc(C)n4)C3)c2C)ncc1C(F)(F)F [Compound D-108] and CNc1nc(Nc2cnn([C@H]3C[C@H](n4ncnc4C)C3)c2C)ncc1C(F)(F)F [Compound D-109] cannot be ordered by IC50: less than 30 nM for the first, less than 30 nM for the second.

CCNc1nc(Nc2cnn(C3CCn4cncc43)c2C)ncc1C(F)(F)F [Compound D-110] and CNc1nc(Nc2cnn(C3CCn4cncc43)c2C)ncc1C(F)(F)F [Compound D-150] cannot be ordered by IC50: less than 30 nM for the first, less than 30 nM for the second.

CNc1nc(Nc2cnn([C@H]3C[C@H](n4cccn4)C3)c2C)ncc1Br [Compound D-111] and CNc1nc(Nc2cnn([C@H]3C[C@@H](n4cc(F)cn4)C3)c2C)ncc1Br [Compound D-192] cannot be ordered by IC50: less than 30 nM for the first, less than 30 nM for the second.

CNc1nc(Nc2cnn(C3CCC(n4ccnn4)C3)c2C)ncc1C(F)(F)F [Compound D-112] and CNc1nc(Nc2cnn(C3CCC(n4nccn4)C3)c2C)ncc1C(F)(F)F [Compound D-114] cannot be ordered by IC50: less than 30 nM for the first, less than 30 nM for the second.

CCNc1nc(Nc2cn([C@H]3C[C@@H](c4cocn4)C3)nc2C)ncc1C(F)(F)F [Compound D-113] and CCNc1nc(Nc2cn(C3Cc4nccn4C3)nc2C)ncc1C(F)(F)F [Compounds D-102] cannot be ordered by IC50: less than 30 nM for the first, less than 30 nM for the second.

First: CNc1nc(Nc2cn(C3(c4ncn(C)n4)CC3)nc2C)ncc1C(F)(F)F [Compound D-115]
Second: CNc1nc(Nc2cn(C3(c4ncn(C)n4)CCC3)nc2C)ncc1C(F)(F)F [Compound D-136]
The IC50 of the first is higher: greater than 60 nM for the first, less than 30 nM for the second. The second is the more potent here.

CCNc1nc(Nc2cnn([C@H]3C[C@H](OC(F)F)C3)c2C)ncc1C(F)(F)F [Compound D-116] and CCNc1nc(Nc2cn([C@H]3C[C@H](OC(F)F)C3)nc2C)ncc1C(F)(F)F [Compound D-138] cannot be ordered by IC50: less than 30 nM for the first, less than 30 nM for the second.

CCNc1nc(Nc2cnn([C@H]3C[C@H](n4cncn4)C3)c2C)ncc1C(F)(F)F [Compound D-117] and CCNc1nc(Nc2cnn([C@H]3C[C@@H](n4ccnn4)C3)c2C)ncc1C(F)(F)F [Compound D-123] cannot be ordered by IC50: less than 30 nM for the first, less than 30 nM for the second.

CCNc1nc(Nc2cnn([C@H]3C[C@@H](n4ncnc4C(F)(F)F)C3)c2C)ncc1C(F)(F)F [Compound D-118] and CCNc1nc(Nc2cnn([C@H]3C[C@H](n4cnc(C(F)(F)F)n4)C3)c2C)ncc1C(F)(F)F [Compound D-135] cannot be ordered by IC50: less than 30 nM for the first, less than 30 nM for the second.

CCOc1nc(Nc2cn(C(F)(F)C(N)=O)nc2C)ncc1C(F)(F)F [Compound D-120] and CCNc1nc(Nc2cn(C(F)(F)C(=O)O)nc2C)ncc1C(F)(F)F [Compound D-161] cannot be ordered by IC50: less than 30 nM for the first, less than 30 nM for the second.

First: CNc1nc(Nc2cnn(C3CCC(n4ccnn4)C3)c2C)ncc1C(F)(F)F [Compound D-124]
Second: CNc1nc(Nc2cn(C3CCC(n4ccnn4)C3)nc2C)ncc1C(F)(F)F [Compound D-125]
The IC50 of the first is lower: less than 30 nM for the first, 30 to 60 nM for the second. The first is the more potent here.

Compared with CCNc1nc(Nc2cnn(C3CCc4cn[nH]c43)c2C)ncc1C(F)(F)F [Compound D-126], CCNc1nc(Nc2cnn(C3CCn4nccc43)c2C)ncc1C(F)(F)F [Compound D-145] is lower in IC50: greater than 60 nM for the first, less than 30 nM for the second. The second is the more potent here.

COc1nc(Nc2cn(C3CCn4ccnc43)nc2C)ncc1C(F)(F)F [Compound D-127] and CNc1nc(Nc2cn(C3CCn4ccnc43)nc2C)ncc1C(F)(F)F [Compound D-137] cannot be ordered by IC50: less than 30 nM for the first, less than 30 nM for the second.

CNc1nc(Nc2cnn([C@H]3C[C@H](n4nccn4)C3)c2C)ncc1Br [Compound D-128] and CNc1nc(Nc2cnn([C@H]3C[C@@H](n4nccn4)C3)c2C)ncc1Br [Compound D-185] cannot be ordered by IC50: less than 30 nM for the first, less than 30 nM for the second.

COc1nc(Nc2cnn([C@H]3C[C@H](n4nccn4)C3)c2C)ncc1Br [Compound D-129] and COc1nc(Nc2cnn([C@H]3C[C@@H](n4nccn4)C3)c2C)ncc1Br [Compound D-184] cannot be ordered by IC50: less than 30 nM for the first, less than 30 nM for the second.

CCNc1nc(Nc2cn(C3CCc4nc[nH]c43)nc2C)ncc1C(F)(F)F [Compound D-131] and CCNc1nc(Nc2cn([C@H]3CCc4ncsc43)nc2C)ncc1C(F)(F)F [Compounds D-86] cannot be ordered by IC50: less than 30 nM for the first, less than 30 nM for the second.

CCNc1nc(Nc2cnn([C@H]3C[C@@H](N4CCCC4=O)C3)c2C)ncc1C(F)(F)F [Compound D-139] and CCNc1nc(Nc2cnn([C@H]3C[C@H](N4CC[C@H](F)C4)C3)c2C)ncc1C(F)(F)F [Compound D-195] cannot be ordered by IC50: less than 30 nM for the first, less than 30 nM for the second.

CCNc1nc(Nc2cn(C(F)(F)C(=O)NC3CC3)nc2C)ncc1C(F)(F)F [Compound D-140] and CCNC(=O)C(F)(F)n1cc(Nc2ncc(C(F)(F)F)c(NC)n2)c(C)n1 [Compound D-160] cannot be ordered by IC50: less than 30 nM for the first, less than 30 nM for the second.

CNc1nc(Nc2cnn(C3(CC#N)CC3)c2C)ncc1C(F)(F)F [Compound D-144] and CCNc1nc(Nc2cnn(C3(CC#N)CC3)c2C)ncc1C(F)(F)F [Compound D-155] cannot be ordered by IC50: less than 30 nM for the first, less than 30 nM for the second.

CCNc1nc(Nc2cn(C3CCn4nccc43)nc2C)ncc1C(F)(F)F [Compound D-146] and CCNc1nc(Nc2cnn([C@H]3C[C@@H](n4nccn4)C3)c2C)ncc1C(F)(F)F [Compound D-148] cannot be ordered by IC50: less than 30 nM for the first, less than 30 nM for the second.

CCNc1nc(Nc2cnn([C@H]3C[C@@H](S(C)(=O)=O)C3)c2C)ncc1C(F)(F)F [Compound D-147] and CCNc1nc(Nc2cnn([C@H]3C[C@@H](N4CC[C@H](F)C4)C3)c2C)ncc1C(F)(F)F [Compound D-196] cannot be ordered by IC50: less than 30 nM for the first, less than 30 nM for the second.

CCNc1nc(Nc2cnn([C@H]3C[C@H](N4CCOCC4)C3)c2C)ncc1C(F)(F)F [Compound D-153] and CCNc1nc(Nc2cnn([C@H]3C[C@H](N4CCN(C)CC4)C3)c2C)ncc1C(F)(F)F [Compound D-187] cannot be ordered by IC50: less than 30 nM for the first, less than 30 nM for the second.

CCNc1nc(Nc2cnn([C@H]3C[C@H](n4nccn4)C3)c2C)ncc1Cl [Compound D-154] and COc1nc(Nc2cnn([C@H]3C[C@H](n4nccn4)C3)c2C)ncc1Cl [Compound D-186] cannot be ordered by IC50: less than 30 nM for the first, less than 30 nM for the second.

CNc1nc(Nc2cnn(C3(COC(F)F)CC3)c2C)ncc1C(F)(F)F [Compound D-157] and CNc1nc(Nc2cn(C(C)COC(F)F)nc2C)ncc1C(F)(F)F [Compounds D-96] cannot be ordered by IC50: less than 30 nM for the first, less than 30 nM for the second.

CNc1nc(Nc2cnn(CC3(CC#N)CC3)c2C)ncc1C(F)(F)F [Compound D-157a] and CCNc1nc(Nc2cnn(CC3(CC#N)CC3)c2C)ncc1C(F)(F)F [Compound D-158] cannot be ordered by IC50: less than 30 nM for the first, less than 30 nM for the second.

CNC(=O)C(F)(F)n1cc(Nc2ncc(C(F)(F)F)c(NC)n2)c(C)n1 [Compound D-159] and CCNc1nc(Nc2cn(C(F)(F)C(N)=O)nc2Cl)ncc1C(F)(F)F [Compound D-164] cannot be ordered by IC50: less than 30 nM for the first, less than 30 nM for the second.

CNc1nc(Nc2cnn([C@H]3C[C@H](n4nccn4)C3)c2C)ncc1C(F)(F)F [Compound D-162] and CNc1nc(Nc2cnn([C@H]3C[C@@H](n4cc(F)cn4)C3)c2C)ncc1C(F)(F)F [Compound D-165] cannot be ordered by IC50: less than 30 nM for the first, less than 30 nM for the second.

CNc1nc(Nc2cn([C@H]3C[C@H](c4nncs4)C3)nc2C)ncc1C(F)(F)F [Compound D-167] and CNc1nc(Nc2cnn([C@H]3C[C@H](c4nncs4)C3)c2C)ncc1C(F)(F)F [Compound D-168] cannot be ordered by IC50: less than 30 nM for the first, less than 30 nM for the second.

Compared with CNc1nc(Nc2cnn(C3CCCn4ccnc43)c2C)ncc1C(F)(F)F [Compound D-169], CCNc1nc(Nc2cnn([C@H]3C[C@H](N4CC[C@@H](F)C4)C3)c2C)ncc1C(F)(F)F [Compound D-197] is lower in IC50: greater than 60 nM for the first, less than 30 nM for the second. The second is the more potent here.

COc1nc(Nc2cn(C3(C)CCn4ccnc43)nc2C)ncc1Br [Compound D-178] and COc1nc(Nc2cn(C(F)(F)C(N)=O)nc2C)ncc1Br [Compound D-183] cannot be ordered by IC50: less than 30 nM for the first, less than 30 nM for the second.

CNc1nc(Nc2cnn([C@H]3C[C@H](n4cc(F)cn4)C3)c2C)ncc1Br [Compound D-193] and CCNc1nc(Nc2cnn([C@H]3C[C@@H](N4CC[C@@H](F)C4)C3)c2C)ncc1C(F)(F)F [Compound D-198] cannot be ordered by IC50: less than 30 nM for the first, less than 30 nM for the second.

CCNc1nc(Nc2cnn([C@H]3C[C@@H](N4CCN(C)CC4)C3)c2C)ncc1C(F)(F)F [Compound D-194] and CCNc1nc(Nc2cn(C(C)(C#N)CF)nc2C)ncc1C(F)(F)F [Compound D-203] cannot be ordered by IC50: less than 30 nM for the first, less than 30 nM for the second.

For CCNc1nc(Nc2cn(C(C#N)(CF)CF)nc2C)ncc1C(F)(F)F [Compound D-204], the IC50 was less than 30 nM.
